The values that follow come from PMC6335200 (Journal of medicinal chemistry, 2018).

One test concerns CHIKV (strain AF15561). In kind it is cell-based, Chikungunya virus.
Test [1] deals with EBOV (Kikwit isolate). The test can be described thus: microbe, parasite or virus in culture. As to conditions: Zaire ebolavirus, Huh-7, 48 h, read-out: EBOV antiviral activity EC50.
For a further test, the system named is AP2M1 phosphorylation. The experiment in a line: AP2M1 phosphorylation by Western analysis in Huh7 cells. As to conditions: calyculin A 30 minutes before lysis. In kind it is cell-based, Human.
The test system of test [2] is EBOV (Kikwit isolate).
The next test has as its target T1, GAK (Homo sapiens, UniProt O14976).
T1 sequence (O14976 1-1311): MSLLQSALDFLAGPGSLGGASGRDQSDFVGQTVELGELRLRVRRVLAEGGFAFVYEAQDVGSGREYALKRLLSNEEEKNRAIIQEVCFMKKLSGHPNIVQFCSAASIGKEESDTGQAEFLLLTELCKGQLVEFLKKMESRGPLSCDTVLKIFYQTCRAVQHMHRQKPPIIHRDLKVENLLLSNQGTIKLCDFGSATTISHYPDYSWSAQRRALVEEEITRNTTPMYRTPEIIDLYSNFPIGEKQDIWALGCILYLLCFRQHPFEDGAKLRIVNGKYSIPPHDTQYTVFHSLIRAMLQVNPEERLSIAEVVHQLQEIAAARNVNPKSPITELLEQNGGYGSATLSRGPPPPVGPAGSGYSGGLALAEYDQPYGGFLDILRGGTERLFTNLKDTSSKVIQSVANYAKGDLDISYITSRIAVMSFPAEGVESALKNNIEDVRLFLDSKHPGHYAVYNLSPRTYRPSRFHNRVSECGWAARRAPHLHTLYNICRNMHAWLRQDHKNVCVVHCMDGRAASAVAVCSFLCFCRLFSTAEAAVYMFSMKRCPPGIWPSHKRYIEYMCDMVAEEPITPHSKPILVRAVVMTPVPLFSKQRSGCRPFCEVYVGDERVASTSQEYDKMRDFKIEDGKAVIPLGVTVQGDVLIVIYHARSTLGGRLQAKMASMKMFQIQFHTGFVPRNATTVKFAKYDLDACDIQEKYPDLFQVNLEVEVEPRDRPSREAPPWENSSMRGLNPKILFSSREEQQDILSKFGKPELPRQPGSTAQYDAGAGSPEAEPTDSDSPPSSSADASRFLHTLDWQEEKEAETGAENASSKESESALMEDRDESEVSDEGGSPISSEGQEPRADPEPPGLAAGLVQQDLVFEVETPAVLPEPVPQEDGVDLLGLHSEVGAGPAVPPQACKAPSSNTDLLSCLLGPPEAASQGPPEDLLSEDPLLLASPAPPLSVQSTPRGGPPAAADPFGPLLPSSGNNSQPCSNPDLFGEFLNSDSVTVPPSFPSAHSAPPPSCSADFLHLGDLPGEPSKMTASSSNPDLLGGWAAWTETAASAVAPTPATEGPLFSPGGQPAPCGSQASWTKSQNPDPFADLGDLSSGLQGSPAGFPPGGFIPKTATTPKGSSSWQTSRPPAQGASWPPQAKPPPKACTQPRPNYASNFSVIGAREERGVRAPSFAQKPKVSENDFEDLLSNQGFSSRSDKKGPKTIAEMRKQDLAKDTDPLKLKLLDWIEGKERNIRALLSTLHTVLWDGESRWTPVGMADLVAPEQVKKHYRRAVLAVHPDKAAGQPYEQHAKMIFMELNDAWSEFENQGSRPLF
As to conditions: read-out: GAK affinity Kd; cited from earlier work.

A word on the EC50: it is the concentration giving half of the maximal effect. Turning to `COc1cc(-c2cnc3c(N4C[C@@H](C)O[C@@H](C)C4)snc3c2)ccc1N` [Compound 12r, 4-(3-(cis-2,6-Dimethylmorpholino)isothiazolo[4,3-b]pyridin-6-yl)-2-methoxyaniline], the “effect on CHIKV infection (in words)” value in the test on CHIKV (strain AF15561) is “dose-dependent decrease in CHIKV infection”. The 50% effective concentration (EC50) in the test with EBOV (Kikwit isolate) [1] is roughly 2 µM. In the test on AP2M1 phosphorylation, the “effect on AP2M1 phosphorylation (in words)” value is “reduced AP2M1 phosphorylation”.

A word on the Kd: it is the free concentration of one partner at which half of the binding sites on the other are occupied at equilibrium, for simple one-to-one binding. Take `COc1cc(-c2cnc3c(N4CCOCC4)snc3c2)ccc1N` [Compound 4]: the “anti-EBOV activity (in words)” value in the test on EBOV (Kikwit isolate) [2] is “no anti-EBOV activity beyond cytotoxicity”. Also, at GAK, the Kd is 0.008 µM.
